Reference: patent publication US20250120946A1, “USE OF PYRROLE COMPOUND IN TREATMENT OF TUMORS” (NANJING SHIJIANG MEDICINE TECHNOLOGY CO., LTD, priority 2021, published 2025)
Read-outs that look alike come from different tables or passages of the source. One block for each compound: values may come before it.

Assays:
[1] = tested on: CFPAC-1 (human pancreatic cancer cell); assay: Cell viability, Promega CellTiter-Glo kit (intracellular ATP), CFPAC-1; assay type: cell-based; conditions: insensitive group, 3-4 days of culture, n=3, read-out: IC50 (50% inhibiting concentration), inhibitory effect on cell line
Experimental: (§1) In the experiment, the IC50 value of sunitinib or sunitinib malate on various tumor cell lines was determined.
(§2) After 3-4 days of culture, the relevant IC50 (50% inhibiting concentration) was measured (n=3).

[2] = tested on: NNMT protein-overexpressing NCI-H82 cell (NCI-H82 (ov-NNMT)); assay: Cell viability, Promega CellTiter-Glo kit, NNMT protein-overexpressing NCI-H82 cell; assay type: cell-based, human; conditions: n=3
Description: (§3) The NNMT protein-overexpressing NCI-H82 cell (NCI-H82 (ov-NNMT)) was obtained by inserting the NNMT gene into NCI-H82 cell using a viral vector. The control NCI-H82 cell (NCI-H82 (Con)) was obtained by transfecting NCI-H82 cell with empty virus vector without carrying NNMT gene.

[3] = tested on: 786-O (clear cell renal cell adenocarcinoma cell); assay: Cell viability, Promega CellTiter-Glo kit (intracellular ATP), 786-O; assay type: cell-based, human; conditions: insensitive group, 3-4 days of culture, n=3, read-out: IC50 (50% inhibiting concentration), inhibitory effect on cell line
Experimental: as §1, §2

[4] = tested on: control NCI-H82 cell (NCI-H82 (Con)); assay: Cell viability, Promega CellTiter-Glo kit, control NCI-H82 cell; assay type: cell-based, human; conditions: n=3
Description: as §3

[5] = tested on: G-401 (human renal carcinoma Wilms cell); assay: Cell viability, Promega CellTiter-Glo kit (intracellular ATP), G-401; assay type: cell-based; conditions: sensitive group, 3-4 days of culture, n=3, read-out: IC50 (50% inhibiting concentration), inhibitory effect on cell line
Experimental: as §1, §2

[6] = tested on: MDA-MB-453 (breast cancer cell); assay: Cell viability, Promega CellTiter-Glo kit (intracellular ATP), MDA-MB-453; conditions: sensitive group, 3-4 days of culture, n=3
[7] = tested on: SF126 (human glioblastoma multiforme cell); assay: Cell viability, Promega CellTiter-Glo kit (intracellular ATP), SF126; assay type: cell-based; conditions: insensitive group, 3-4 days of culture, n=3, read-out: IC50 (50% inhibiting concentration), inhibitory effect on cell line
Experimental: as §1, §2

[8] = tested on: WSU-DLCL2 (human diffuse large B-cell lymphoma); assay: Cell viability, Promega CellTiter-Glo kit (intracellular ATP), WSU-DLCL2; assay type: cell-based; conditions: sensitive group, 3-4 days of culture, n=3, read-out: IC50 (50% inhibiting concentration), inhibitory effect on cell line
Experimental: as §1, §2

[9] = tested on: GB-1 (human glioblastoma cell); assay: Cell viability, Promega CellTiter-Glo kit (intracellular ATP), GB-1; assay type: cell-based; conditions: insensitive group, 3-4 days of culture, n=3, read-out: IC50 (50% inhibiting concentration), inhibitory effect on cell line
Experimental: as §1, §2

[10] = tested on: NCI-H82 (human small cell lung cancer cell); assay: Cell viability, Promega CellTiter-Glo kit (intracellular ATP), NCI-H82; assay type: cell-based; conditions: sensitive group, 3-4 days of culture, n=3, read-out: IC50 (50% inhibiting concentration), inhibitory effect on cell line
Experimental: as §1

[11] = tested on: SW48 (human colon adenocarcinoma cell); assay: Cell viability, Promega CellTiter-Glo kit (intracellular ATP), SW48; assay type: cell-based; conditions: sensitive group, 3-4 days of culture, n=3, read-out: IC50 (50% inhibiting concentration), inhibitory effect on cell line
Experimental: as §1, §2

- IC50 ([1]; Homo sapiens, CFPAC-1, CFPAC-1): 19.6 µM
- IC50 ([2]; Homo sapiens, NCI-H82, NCI-H82 with NNMT gene inserted via viral vector (NNMT protein overexpressed)): 2.96 µM
- IC50 ([3]; Homo sapiens, 786-0, 786-O): 23.7 µM
- IC50 ([4]; Homo sapiens, NCI-H82, NCI-H82 transfected with empty virus vector without NNMT gene): 1.24 µM
- IC50 ([5]; Homo sapiens, G-401, G-401): 2.91 µM
- IC50 ([6]; Homo sapiens, MDA-MB-453, read-out: IC50 (50% inhibiting concentration), inhibitory effect on cell line, MDA-MB-453): 2.47 µM
- IC50 ([7]; Homo sapiens, SF-126, SF126): 11.4 µM
- IC50 ([8]; Homo sapiens, WSUDLCL2, WSU-DLCL2): 1.34 µM
- IC50 ([9]; Homo sapiens): 10.7 µM
- IC50 ([10]; Homo sapiens, NCI-H82, NCI-H82): 1.3 µM
- IC50 ([11]; Homo sapiens, SW48, SW48): 1.15 µM
Structure (SMILES): CCN(CC)CCNC(=O)c1c(C)[nH]c(/C=C2\C(=O)Nc3ccc(F)cc32)c1C [Sunitinib, sunitinib]

- IC50 ([1]; CFPAC-1): 16.8 µM
- IC50 ([2]; NCI-H82 with NNMT gene inserted via viral vector (NNMT protein overexpressed)): 3.31 µM
- IC50 ([3]; 786-O): 17.8 µM
- IC50 ([4]; NCI-H82 transfected with empty virus vector without NNMT gene): 1.21 µM
- IC50 ([5]; G-401): 2.5 µM
- IC50 ([6]; read-out: IC50 (50% inhibiting concentration), inhibitory effect on cell line, MDA-MB-453): 2.33 µM
- IC50 ([7]; SF126): 12.4 µM
- IC50 ([8]; WSU-DLCL2): 1.11 µM
- IC50 [9]: 12.1 µM
- IC50 ([10]; NCI-H82): 1.29 µM
- IC50 ([11]; SW48): 1.47 µM
Structure (SMILES): CCN(CC)CCNC(=O)c1c(C)[nH]c(/C=C2\C(=O)Nc3ccc(F)cc32)c1C [Sunitinib malate, sunitinib malate]
